“Also recorded” adds a separate entry of the source.
Assays:
Format in all cases: cell-based
E11 murine podocytes = assay: Immunofluorescent staining (F-actin, nephrin, WGA) of differentiated podocytes; conditions: 100 μM PAN vs without PAN; microcurvature surface
Procedure: For immunofluorescent staining, cells were first washed with Dulbecco's phosphate buffered saline (DPBS, Life Technologies) and then fixed in 4% paraformaldehyde solution for 15 min at room temperature, followed by another wash with DPBS. For F-actin staining, the cells were permeated and blocked in 10% (v/v) FBS and 0.25% Triton X100 in DPBS for 1 hour. Next, the cells were incubated with Alexa Fluor® 660 phalloidin (Thermo Fisher Scientific) for 1 hour. For Nephrin and Wheat Germ Agglutinin (WGA) staining, the cells were blocked in 10% normal goat serum for 1 hour. Next, the cells were incubated in primary anti-Nephrin antibody (Thermo Fisher Scientific) overnight at 4° C. followed by incubation with FITC goat anti-rabbit IgG (1:200 dilutions, Abcam, UK) for 1 hour at room temperature. Lastly, the cells were incubated with Rhodamine-WGA (1:1000 dilution, Vector Laboratories, USA) for 10 min at room temperature.
The additional influence of the microcurvature topography is shown by the change from compacted, spindle-like cells to arborized morphologies. This was especially evident in the vehicle-only group.
From immunostaining results, it appeared that cell membrane area and nephrin expression decreased, indicating a possible reduction in cell spreading as a result of the PAN insult. However, the localization of nephrin still consistently appeared on top of the bubbles. […]

[1] = tested on: murine nephrin gene (NPHS1) in E11 murine podocytes; assay: PAN stimulation of differentiated podocytes, nephrin gene expression by RT-qPCR; conditions: 17-100 μM PAN for 24 hours (day 8 to 9); microcurvature surface; 15,000 cells/cm^2; (+)ATRA media
Procedure: On day 9, cells were washed with warm, non-supplemented RPMI 1640 basal media prior to lysing and RNA isolation. A High Pure RNA Isolation Kit (Roche) was used according to manufacturer's instructions, using 50 μL of elution buffer for the final step. Each sample from the study consisted of 3 individual wells pooled together, to ensure that a sufficient amount of RNA was being collected. Thus, 9 wells were seeded for each group to generate n=3 samples per condition. Isolated RNA was converted to complementary DNA (cDNA) using the High Capacity cDNA Reverse Transcription Kit (Applied Biosystems, USA) for ensuing PCR applications. RNA solutions were diluted to a final 7.5 ng/μL in a total reaction volume of 60 μL. Real-time PCR was run on the generated cDNA using the TaqMan Gene Expression Assay (Applied Biosystems). cDNA was diluted to 3.33 ng/μL in a volume of 9 μL, for a total of 30 ng cDNA per reaction. […] Expression of murine nephrin gene (NPHS1, Thermo Fisher Scientific) and the housekeeping gene Beta-2-Microglobulin (B2M, Thermo Fisher Scientific) was determined using relative quantification analysis (28), where C57/bl6 mouse whole kidney cDNA was used as a positive control and as a normalizer in calculations. […]

podocyte layer = assay: Permeability of cells cultured on transwell microcurvature or flat membrane; conditions: treatment by PAN, 15,000 or 50,000 cells/cm^2
Text: One of the important physiological consequences from the disruption of the nephrin adhesion protein is the loss of barrier function from the podocyte slit diaphragm, which leads to abnormal protein levels in urine (e.g. albumin, etc.). The disclosed microcurvature membrane system may enable a direct measurement of the permeability of the podocyte layer in a non-invasive manner, in order to probe the barrier function at the podocyte slit diaphragm.
The permeability of the microcurvature membrane, without cells, may be investigated using dye, fluorescently labeled molecules, or any molecule whose concentration may be quantified in the chamber solution. Some examples include 1-10 μM of 70 kDa TRITC-dextran or 60 kDa FITC-albumin. The molecule of interest may be placed in the upper transwell chamber and collected in the lower chamber over time, or vice-versa. […] FIG. 12F is a plot of example preliminary results showing the permeability of the membrane surface (also referred to as a “topomembrane”) in different configurations, namely without microcurvature (“flat topomembrane”) or with convex microcurvature (“bubble topomembrane”); with cells cultivated on the surface (“+cells”), before cell cultivation (“no cells”) or after cultivated cells are removed (“cells removed”); and compared to the culture well without any membrane (“transwells”). […]

CN(C)c1ncnc2c1ncn2[C@@H]1O[C@H](CO)[C@@H](N)[C@H]1O [PAN, Puromycin amino nucleoside]
cell membrane area (immunostaining) (E11 murine podocytes): decreased | nephrin expression (immunostaining) (E11 murine podocytes): decreased | nephrin gene expression compared to the PAN-free control [1]: moderate downregulation; also recorded: dose-response downregulated behaviour | permeability of cells in response to chemical insult (podocyte layer): increasing permeability

From US10876089B2, “Apparatus and method for high-fidelity podocyte cultivation” (priority 2016, dated 2020)
